Experimental data published in US7071197B2, “N,N-disubstituted diazocycloalkanes” (Recordati S.A., priority 2002, dated 2006).

Key:
human α1a-adrenoceptor = target: T1, human α1a-adrenoceptor (Homo sapiens, UniProt P35348); experiment: [3H]prazosin binding to cloned human α1-adrenoceptor subtypes (α1a); details: for Ki: [3H]prazosin, CHO cell membranes, read-out: Binding affinity (Ki, nM) α1a; for α1a/5-HT1A: selectivity: ratio of Ki at α1a and Ki at 5-HT1A
T1 construct: expressed in transfected cells
T1 sequence (P35348 1-466): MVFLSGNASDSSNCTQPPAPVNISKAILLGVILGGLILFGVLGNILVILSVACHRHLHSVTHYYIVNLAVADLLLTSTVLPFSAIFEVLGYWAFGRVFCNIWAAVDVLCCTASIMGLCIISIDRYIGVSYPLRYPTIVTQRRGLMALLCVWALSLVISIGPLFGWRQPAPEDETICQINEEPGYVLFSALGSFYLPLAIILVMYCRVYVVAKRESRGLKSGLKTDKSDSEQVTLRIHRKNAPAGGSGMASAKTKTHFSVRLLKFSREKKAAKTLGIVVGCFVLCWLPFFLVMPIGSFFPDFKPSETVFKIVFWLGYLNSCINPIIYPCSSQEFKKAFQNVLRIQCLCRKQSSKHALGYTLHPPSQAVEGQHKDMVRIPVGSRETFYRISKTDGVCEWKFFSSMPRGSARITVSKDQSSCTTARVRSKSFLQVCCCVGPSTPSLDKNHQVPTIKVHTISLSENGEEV
Method: (§1) Binding to cloned human α1-adrenoceptor subtypes was performed in membranes from CHO cells (chinese hamster ovary cells) transfected by electroporation with DNA expressing the gene encoding each α1-adrenoceptor subtype. Cloning and stable expression of the human α1-adrenoceptor gene was performed as previously described (Testa et al. Pharmacol. Comm., 6: 79–86,1995).
(§2) CHO cells were grown in suspension in Iscove's modified Dulbecco's medium, supplemented with 10% fetal calf serum and gentamicin (50 μg/ml), at 37° C. in 7% CO2 in an humidified incubator. Cells were collected by centrifugation, lised in ice-cold Tris 5 mM and EDTA 5 mM buffer (pH 7.4) and gently homogenised. Homogenates were centrifuged at 40000×g×20 min and pellets were resuspended in a small volume of ice-cold Tris 5 mM and EDTA 5 mM buffer (pH 7.4) and immediately frozen and stored at −80° C. until use.
(§3) CHO cell membranes were resuspended and incubated in 50 mM Tris, pH 7.4, with 0.2 nM [^3H]prazosin, in a final volume of 1.02 ml for 30 min at 25° C., in absence or presence of competing drugs. Non-specific binding was determined in the presence of 10 μM phentolamine. The incubation was stopped by rapid filtration through 0.2% polyethyleneimine pretreated Schleicher & Schuell GF52 filters using a Tomtec (PerkinElmer) cell harvester. The filters were washed with 3×1 ml of ice-cold Tris buffer, dried and the radioactivity was measured in a Betaplate (Wallac) liquid scintillation counter.
(§4) The inhibition of specific binding by the compounds was analysed to estimate the IC50 value by the non-linear curve-fitting program Allfit (De Lean et al. Am. J. Physiol. 235, E97-E102, 1978). The IC50 value is converted to an affinity constant (Ki) by the equation of Cheng & Prusoff (Biochem. Pharmacol. 22: 3099–3108, 1973).

human α1d-adrenoceptor = target: T2, human α1d-adrenoceptor (Homo sapiens, UniProt P25100); experiment: [3H]prazosin binding to cloned human α1-adrenoceptor subtypes (α1d); details: for Ki: [3H]prazosin, CHO cell membranes, read-out: Binding affinity (Ki, nM) α1d; for α1d/S-HT1A: selectivity: ratio of Ki at α1d and Ki at 5-HT1A
T2 construct: expressed in transfected cells
T2 sequence (P25100 1-572): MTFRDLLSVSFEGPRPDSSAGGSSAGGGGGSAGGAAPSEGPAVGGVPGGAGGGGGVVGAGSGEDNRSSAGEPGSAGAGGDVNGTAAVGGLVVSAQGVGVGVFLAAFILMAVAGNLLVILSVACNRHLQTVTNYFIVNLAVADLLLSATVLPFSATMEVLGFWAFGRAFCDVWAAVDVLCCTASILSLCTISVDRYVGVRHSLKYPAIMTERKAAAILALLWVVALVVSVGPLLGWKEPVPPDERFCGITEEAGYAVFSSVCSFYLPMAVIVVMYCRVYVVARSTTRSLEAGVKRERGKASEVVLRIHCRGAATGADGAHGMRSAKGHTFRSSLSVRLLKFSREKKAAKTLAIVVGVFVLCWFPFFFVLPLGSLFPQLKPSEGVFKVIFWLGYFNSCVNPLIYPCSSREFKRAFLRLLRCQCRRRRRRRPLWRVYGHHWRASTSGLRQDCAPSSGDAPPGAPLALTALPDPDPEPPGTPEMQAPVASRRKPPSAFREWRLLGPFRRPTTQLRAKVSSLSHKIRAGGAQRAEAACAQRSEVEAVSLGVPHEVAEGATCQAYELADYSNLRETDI
Method: as §1, §2, §3, §4

Row | SMILES | Ki (human α1a-adrenoceptor) | α1a/5-HT1A (human α1a-adrenoceptor) | Ki (human α1d-adrenoceptor) | α1d/S-HT1A (human α1d-adrenoceptor)
1 | COc1ccccc1N1CCN(CC[C@@H](c2ccccc2F)[C@H](O)C2CCCCC2)CC1 (racemic) [Ex. 1, 1-[(SR-RS)-4-cyclohexyl-4-hydroxy-3-(2-fluorophenyl)-butyl]-4-(2-methoxyphenyl)-piperazine] | 18 nM | 138 | 1 nM | 7.7
2 | COc1ccccc1N1CCN(CC[C@H](c2ccccc2)[C@@H](O)C2CCCCC2)CC1 (racemic) [Ex. 5, 1-[(RS,SR)-4-Cyclohexyl-4-hydroxy-3-phenyl-butyl]-4-(2-methoxyphenyl)-piperazine, reference compound] | 51 nM | 78 | 0.5 nM | 0.8
3 | COc1ccccc1N1CCN(CC[C@H](c2ccccc2F)[C@@H](O)C2CCCCC2)CC1 [Ex. 1Y, 1-[(3R,4S)-4-cyclohexyl-4-hydroxy-3-(2-fluorophenyl)-butyl]-4-(2-methoxyphenyl)-piperazine] | 24 nM | 65 | 1.2 nM | 3.2
4 | COc1ccccc1N1CCN(CC[C@H](c2ccccc2F)[C@H](O)C2CCCCC2)CC1 [Ex. 2X, 1-[(3R,4R)-4-cyclohexyl-4-hydroxy-3-(2-fluorophenyl)-butyl]-4-(2-methoxyphenyl)-piperazine] | 44 nM | 183 | 0.5 nM | 2.1
